Source: doi:10.1101/2023.05.15.540887, “Comparative analysis of drug-like EP300/CREBBP acetyltransferase inhibitors” (bioRxiv, 2023)
Like-named read-outs stand apart in the source and are kept apart here.

What was measured:
M14 = experiment: cells; conditions: Homo sapiens
UO-31 = experiment: NCI-60 growth inhibition (sulforhodamine B); type: cell-based; conditions: Homo sapiens, UO-31, Renal Cancer, negative log of Molar value, LCONC -8, EXPID 2301NS84
786-0 = experiment: NCI-60 growth inhibition (sulforhodamine B); type: cell-based; conditions: Homo sapiens, 786-0, Renal Cancer, negative log of Molar value, LCONC -8, EXPID 2301NS84
T-47D = experiment: NCI-60 growth inhibition (sulforhodamine B); type: cell-based; conditions: Homo sapiens, T47D
MCF10A PANK4 KO+EV cells = experiment: Sulforhodamine B cell growth assay, MCF10A PANK4 KO+EV; type: cell-based, human
A498 = experiment: NCI-60 growth inhibition (sulforhodamine B); type: cell-based; conditions: Homo sapiens, A498, Renal Cancer, negative log of Molar value, LCONC -8, EXPID 2301NS84
PC-3 = experiment: NCI-60 growth inhibition (sulforhodamine B); type: cell-based; conditions: Homo sapiens, PC-3, Prostate Cancer, negative log of Molar value, LCONC -8, EXPID 2301NS84
NCI-60 cell line panel = experiment: NCI-60 cell line screen growth inhibition (sulforhodamine B), whole panel; type: cell-based, human; conditions: compared among 1-3
Description: In principle the phenotype elicited by any single small molecule can be due to either an on- or off-target effect; however, if multiple chemically distinct small molecules designed to target a single gene all elicit the same phenotype, one’s confidence in their on-target mechanism becomes greater. As such, we sought to apply our knowledge of the comparative potencies of 1-3 to test whether the simplest phenotype caused by EP300/CREBBP inhibitors – cell death – was consistent with their effects on histone acetylation and a putative on-target mechanism. […] Subsequently, the COMPARE algorithm was used to compare the patterns of growth inhibition elicited by 1-3 in the NCI-60 assay against the >150,000 compounds analyzed in the screen to date.[29] […] Finally, the specificity of CPI-1612 (3) was directly assessed using quantitative LC-MS analysis of histone acetylation in treated cells,[33] focusing on four abundant histone acetylation markers whose writers are well-characterized: H3K9Ac (written by KAT2A/B), H3K14Ac (KAT7), H3K18Ac (EP300/CREBBP), and H3K23Ac (KAT6A/B; Fig. 3e).[26] […]

HT29 = experiment: NCI-60 growth inhibition (sulforhodamine B); type: cell-based, human; conditions: HT29 (Colon Cancer), negative log of Molar conc., LCONC -8
U251 = experiment: NCI-60 growth inhibition (sulforhodamine B); type: cell-based, human; conditions: U251 (CNS Cancer), negative log of Molar conc., LCONC -8
CAKI-1 = experiment: NCI-60 growth inhibition (sulforhodamine B); type: cell-based; conditions: Homo sapiens, CAKI-1, Renal Cancer, negative log of Molar value, LCONC -8, EXPID 2301NS84
[1] = read-out: IC50 NLOGVALUE (converted)
[2] = read-out: GI50 NLOGVALUE (converted)

## C[C@H](CN[C@@H](C(=O)Nc1ccc(-c2cnn(C)c2)cn1)c1ccccc1)c1ccc(C#N)cc1 [CPI-1612]
M14; M14, read-out: GI50 NLOGVALUE
  GI50: 21.4 nM
M14; M14, read-out: IC50 NLOGVALUE
  IC50: 44700 nM
M14; M14, read-out: LC50 NLOGVALUE
  CC50: > 100000 nM
UO-31; read-out: GI50 NLOGVALUE
  GI50: < 10 nM
UO-31; [1]
  IC50: 28.2 nM
UO-31; read-out: LC50 NLOGVALUE
  CC50: > 100000 nM
786-0; [2]
  GI50: 55000 nM
786-0; read-out: IC50 NLOGVALUE
  IC50: > 100000 nM
786-0; read-out: LC50 NLOGVALUE
  CC50: > 100000 nM
T-47D; T-47D, Breast Cancer, negative log of Molar value, LCONC -8, EXPID 2301NS84, read-out: GI50 NLOGVALUE (converted)
  GI50: 11.5 nM
T-47D; T-47D, Breast Cancer, negative log of Molar value, LCONC -8, EXPID 2301NS84, read-out: IC50 NLOGVALUE (converted)
  IC50: 42700 nM
T-47D; T-47D, Breast Cancer, negative log of Molar value, LCONC -8, EXPID 2301NS84, read-out: LC50 NLOGVALUE
  CC50: > 100000 nM
T-47D; read-out: GI50 AVGDATA (converted)
  GI50: 11.7 nM
MCF10A PANK4 KO+EV cells; Homo sapiens, MCF-10A KO+EV, 72 h
  IC50: 84 nM
MCF10A PANK4 KO+EV cells; PANK4 KO+EV cells, 1 μM
  growth inhibition activity at 1 μM: remains active
A498; [2]
  GI50: 29.5 nM
A498; read-out: IC50 NLOGVALUE
  IC50: > 100000 nM
A498; read-out: LC50 NLOGVALUE
  CC50: > 100000 nM
PC-3; read-out: GI50 NLOGVALUE
  GI50: < 10 nM
PC-3; [1]
  IC50: 447 nM
PC-3; read-out: LC50 NLOGVALUE
  CC50: > 100000 nM
NCI-60 cell line panel
  inhibition of cell growth, NCI-60 screen: most potent inhibitor of cell growth
HT29
  TGI NLOGVALUE: 4
HT29; Homo sapiens, HT-29, read-out: GI50 NLOGVALUE (converted)
  GI50: 49 nM
HT29; Homo sapiens, HT-29, read-out: IC50 NLOGVALUE (converted)
  IC50: 437 nM
U251; Homo sapiens, U-251, read-out: GI50 NLOGVALUE (converted)
  GI50: 2340 nM
U251; Homo sapiens, U-251, read-out: IC50 NLOGVALUE (converted)
  IC50: 28800 nM
U251; Homo sapiens, U-251, read-out: LC50 NLOGVALUE
  CC50: > 100000 nM
U251
  TGI NLOGVALUE: 4
CAKI-1; read-out: GI50 NLOGVALUE
  GI50: < 10 nM
CAKI-1; read-out: LC50 NLOGVALUE
  CC50: > 100000 nM
